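Growth conditions: 96-well plates. Treatment: test compound, 48 hours, 5 concentrations. Analysis: linear interpolation between bracketing concentrations; unreached endpoints set to highest concentration. GI50 = concentration required for 50% inhibition of growth.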 The source made the active and inactive calls. No stated cut-off is given here; in the data, active = GI50 up to about 1.1 µM and inactive = higher.
Columns and labels:
Assay in all cases: growth of human tumour cells (NCI), 48 h
[1] = test system: 786-0
[2] = test system: ACHN
[3] = test system: CAKI-1
[4] = test system: CCRF-CEM
[5] = test system: COLO 205
[6] = test system: DU-145
[7] = test system: HOP-92
[8] = test system: HT-29
[9] = test system: KM12
[10] = test system: MCF7
[11] = test system: MDA-MB-435
[12] = test system: MDA-N
[13] = test system: OVCAR-4
[14] = test system: PC-3
[15] = test system: SF-268
[16] = test system: SK-OV-3
[17] = test system: SN12C
[18] = test system: UO-31
[19] = test system: HL-60
[20] = test system: BT-549

SMILES | GI50 [1] | GI50 [2] | GI50 [3] | GI50 [4] | GI50 [5] | GI50 [6] | GI50 [7] | GI50 [8] | GI50 [9] | GI50 [10] | GI50 [11] | GI50 [12] | GI50 [13] | GI50 [14] | GI50 [15] | GI50 [16] | GI50 [17] | GI50 [18] | GI50 [19] | GI50 [20]
CCOC1OCCCC1Br (stereo not drawn) | > 100 µM (inactive) | > 100 µM (inactive) | > 100 µM (inactive) | > 100 µM (inactive) | > 100 µM (inactive) | > 100 µM (inactive) | > 100 µM (inactive) | > 100 µM (inactive) | > 100 µM (inactive) | > 100 µM (inactive) | > 100 µM (inactive) | > 100 µM (inactive) | > 100 µM (inactive) | > 100 µM (inactive) | > 100 µM (inactive) | > 100 µM (inactive) | > 100 µM (inactive) | > 100 µM (inactive) |  | 
O=C1OC([C@H](O)c2cccnc2)c2ccccc21 (stereo partly drawn) | > 10 µM (inactive) | > 10 µM (inactive) | > 10 µM (inactive) | > 10 µM (inactive) | > 10 µM (inactive) | > 10 µM (inactive) | > 10 µM (inactive) | > 10 µM (inactive) | > 10 µM (inactive) | > 10 µM (inactive) | > 10 µM (inactive) | > 10 µM (inactive) | > 10 µM (inactive) | > 10 µM (inactive) | > 10 µM (inactive) | > 10 µM (inactive) | > 10 µM (inactive) | > 10 µM (inactive) | > 10 µM (inactive) | 
COc1cc(OC)c2nc(C)c3c(c2c1)SCC3 | 19.5 µM (inactive) | 18.7 µM (inactive) | 16.1 µM (inactive) | > 100 µM (inactive) | > 100 µM (inactive) | 44.8 µM (inactive) |  | 40.6 µM (inactive) | 68.5 µM (inactive) | 15.6 µM (inactive) | 25.5 µM (inactive) | 28.8 µM (inactive) | 18.8 µM (inactive) | 20 µM (inactive) | 19.4 µM (inactive) | 27.7 µM (inactive) | 25.5 µM (inactive) | 21.9 µM (inactive) | 78 µM (inactive) | 
COc1ccc(-c2nc3ncccn3c2-c2ccc(S(C)(=O)=O)cc2)cc1 | > 100 µM (inactive) | > 100 µM (inactive) | 24.9 µM (inactive) | > 100 µM (inactive) | > 100 µM (inactive) | > 100 µM (inactive) | 14.1 µM (inactive) | > 100 µM (inactive) | > 100 µM (inactive) | 22.3 µM (inactive) | 38 µM (inactive) |  | > 100 µM (inactive) | > 100 µM (inactive) | 35.2 µM (inactive) | 90.4 µM (inactive) | > 100 µM (inactive) | > 100 µM (inactive) | > 100 µM (inactive) | > 100 µM (inactive)
CCN(CC)CC1CCCCN1CC(=O)N1c2ccc(Br)cc2C(=O)Nc2cccnc21 (stereo not drawn) | > 100 µM (inactive) | > 100 µM (inactive) | > 100 µM (inactive) | > 100 µM (inactive) | > 100 µM (inactive) | > 100 µM (inactive) | 80.4 µM (inactive) | > 100 µM (inactive) | > 100 µM (inactive) | > 100 µM (inactive) | > 100 µM (inactive) | > 100 µM (inactive) | > 100 µM (inactive) | > 100 µM (inactive) | > 100 µM (inactive) | > 100 µM (inactive) | > 100 µM (inactive) | 27.2 µM (inactive) | > 100 µM (inactive) | 
CC(=O)OC(CN1CCN(c2ccccn2)CC1)Cn1sc2nc(C)cc(C)c2c1=O (stereo not drawn) | 14.9 µM (inactive) | 16.4 µM (inactive) | 18.9 µM (inactive) | 5.78 µM (inactive) | 15.8 µM (inactive) | 19 µM (inactive) | 48.3 µM (inactive) | 18.6 µM (inactive) | 21.4 µM (inactive) | 17.9 µM (inactive) | 16.9 µM (inactive) |  | 22.4 µM (inactive) | 17.5 µM (inactive) | 17.3 µM (inactive) | 17.9 µM (inactive) | 18.9 µM (inactive) | 16.3 µM (inactive) | 16.8 µM (inactive) | 18.6 µM (inactive)
CC1=NN(c2cccc(Cl)c2)C2(SCC(=O)N2c2nc3ccccc3s2)/C1=C\c1ccccc1O (stereo not drawn) | 16.3 µM (inactive) | 15.5 µM (inactive) | 21.4 µM (inactive) | 15.1 µM (inactive) |  | 18.3 µM (inactive) | 10.1 µM (inactive) | 23.4 µM (inactive) | 19.7 µM (inactive) | 20 µM (inactive) | 21.3 µM (inactive) | 22.3 µM (inactive) | 21.4 µM (inactive) | 19.8 µM (inactive) | 22.6 µM (inactive) | 18.4 µM (inactive) |  | 15.7 µM (inactive) | 14.2 µM (inactive) | 
CCCCCCOC(=O)C(N)Cc1ccc(OC)cc1 (stereo not drawn) | > 100 µM (inactive) | > 100 µM (inactive) | > 100 µM (inactive) | 26.6 µM (inactive) | > 100 µM (inactive) | > 100 µM (inactive) | 5.55 µM (inactive) | > 100 µM (inactive) | > 100 µM (inactive) | > 100 µM (inactive) | > 100 µM (inactive) |  | > 100 µM (inactive) | > 100 µM (inactive) | > 100 µM (inactive) | > 100 µM (inactive) | > 100 µM (inactive) | > 100 µM (inactive) | > 100 µM (inactive) | > 100 µM (inactive)
CC1(C)N=c2[nH]cnc2=C(C(N)=O)N1 | > 100 µM (inactive) | > 100 µM (inactive) | > 100 µM (inactive) | > 100 µM (inactive) | > 100 µM (inactive) | > 100 µM (inactive) | > 100 µM (inactive) | > 100 µM (inactive) | > 100 µM (inactive) | > 100 µM (inactive) | > 100 µM (inactive) | > 100 µM (inactive) | > 100 µM (inactive) | > 100 µM (inactive) | > 100 µM (inactive) | > 100 µM (inactive) | > 100 µM (inactive) |  | > 100 µM (inactive) | 
CCC1(O)C(=O)OCc2c1cc1n(c2=O)Cc2cc3cc4c(cc3nc2-1)OCO4 (stereo not drawn) | < 0.01 µM (active) | < 0.01 µM (active) | < 0.01 µM (active) | < 0.01 µM (active) | 0.0713 µM (active) | < 0.01 µM (active) | 0.0191 µM (active) | 0.0113 µM (active) |  | < 0.01 µM (active) | < 0.0131 µM (active) |  | 0.0551 µM (active) | 0.204 µM (active) | < 0.0363 µM (active) | 0.0102 µM (active) | < 0.01 µM (active) | < 0.0111 µM (active) | < 0.01 µM (active) | 0.0163 µM (active)
CCOC(=O)c1c(-c2ccccc2)nc2c(OC)nccn12 | > 100 µM (inactive) |  | > 100 µM (inactive) | > 100 µM (inactive) | > 100 µM (inactive) | > 100 µM (inactive) |  | > 100 µM (inactive) | > 100 µM (inactive) | > 100 µM (inactive) | > 100 µM (inactive) |  | > 100 µM (inactive) | > 100 µM (inactive) | > 100 µM (inactive) | > 100 µM (inactive) | > 100 µM (inactive) | 20.5 µM (inactive) | > 100 µM (inactive) | > 100 µM (inactive)
C=CCON(C(=O)OC(C)(C)C)C(C)(C)C | > 100 µM (inactive) | > 100 µM (inactive) | > 100 µM (inactive) | > 100 µM (inactive) | > 100 µM (inactive) | > 100 µM (inactive) | > 100 µM (inactive) | > 100 µM (inactive) | > 100 µM (inactive) |  | > 100 µM (inactive) |  | 1.55 µM (inactive) | > 100 µM (inactive) | > 100 µM (inactive) | > 100 µM (inactive) |  | > 100 µM (inactive) | > 100 µM (inactive) | > 100 µM (inactive)
Cc1nc2c(n1-c1ccc(Br)cc1)C(=O)c1ccccc1C2=O | 5.16 µM (inactive) | 9.06 µM (inactive) | 12.5 µM (inactive) | 3.16 µM (inactive) | 4.38 µM (inactive) | 58.2 µM (inactive) | 27.2 µM (inactive) | 6.68 µM (inactive) | 6.5 µM (inactive) | 3.62 µM (inactive) | 6.73 µM (inactive) | 6.84 µM (inactive) | 14.8 µM (inactive) | 1.26 µM (inactive) | 5.21 µM (inactive) | 42.2 µM (inactive) | 4.76 µM (inactive) | 7.76 µM (inactive) | 0.783 µM (active) | 
CN(C)c1ccc(C2CC(C)(O)Oc3cc4c(cc32)OCO4)cc1 (stereo not drawn) | 43.7 µM (inactive) | 70.6 µM (inactive) | 66.2 µM (inactive) | 33.6 µM (inactive) | 23.4 µM (inactive) | > 100 µM (inactive) | 25.9 µM (inactive) | 26.9 µM (inactive) | 30 µM (inactive) | 38.4 µM (inactive) | 13.6 µM (inactive) | 18.6 µM (inactive) |  | 39.4 µM (inactive) | 46.7 µM (inactive) | 48.8 µM (inactive) | 25.4 µM (inactive) | 30.7 µM (inactive) | 46.3 µM (inactive) | 
COc1ccc(-n2cnc3c2=NC(C)(C)NC=3C(N)=O)c(OC)c1 | > 100 µM (inactive) | > 100 µM (inactive) | > 100 µM (inactive) | > 100 µM (inactive) | > 100 µM (inactive) | > 100 µM (inactive) | 42.1 µM (inactive) | > 100 µM (inactive) | > 100 µM (inactive) | > 100 µM (inactive) | > 100 µM (inactive) | > 100 µM (inactive) | > 100 µM (inactive) | > 100 µM (inactive) | > 100 µM (inactive) | > 100 µM (inactive) | > 100 µM (inactive) |  | > 100 µM (inactive) | 

Reference: ChEMBL document CHEMBL1201862, “PubChem BioAssay data set” (2004)
